# Biological target: PD-1/PD-L1 (Homo sapiens (Human), UniProt Q9NZQ7)
# Assay: PD-1/PD-L1 Homogeneous Time-Resolved Fluorescence (HTRF) Binding Assay
# Conditions: recombinant human PD-1 (3 nM) and PD-L1 (10 nM), 25° C., PBS pH 7.4
# Outline: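 Fc-tagged human PD-1 (25-167, 3 nM) and His-tagged PD-L1 (19-238, 10 nM) preincubated with inhibitor 40 min in PBS pH 7.4, 0.05% Tween-20, 0.1% BSA, 1% DMSO, 25 °C. Binding detected by HTRF (Eu anti-IgG/APC anti-His, 665/620 nm) after 60 min; IC50 from percent control activity.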
# Chain of PD-1/PD-L1 (Q9NZQ7 19-238): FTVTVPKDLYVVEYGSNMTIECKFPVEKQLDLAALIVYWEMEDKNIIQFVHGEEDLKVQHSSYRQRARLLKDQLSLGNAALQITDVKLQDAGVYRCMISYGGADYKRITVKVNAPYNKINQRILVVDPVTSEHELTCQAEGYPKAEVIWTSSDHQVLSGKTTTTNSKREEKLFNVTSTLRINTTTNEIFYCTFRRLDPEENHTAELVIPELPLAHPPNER
row,IC50 [nM],Structure (SMILES)
1,≤ 10,"Cc1c(Nc2nccc3cc(CN4CC[C@@H](O)C4)cnc23)cccc1-c1cccc(-c2nc3cc(CN[C@H]4CCC[C@@H]4C(=O)O)cc(C#N)c3o2)c1C [Example 179, (1S,2S)-2-((7-cyano-2-(3′-(3-(((R)-3-hydroxypyrrolidin-1-yl)methyl)-1,7-naphthyridin-8-ylamino)-2,2′-dimethylbiphenyl-3-yl)benzo[d]oxazol-5-yl)methylamino)cyclopentanecarboxylic acid]"
2,≤ 10,"Cc1c(Nc2nccc3cc(CN4CC[C@@H](O)C4)cnc23)cccc1-c1cccc(-c2nc3cc(CN4CC5CC4CC5C(=O)O)cc(C#N)c3o2)c1C (stereo partly drawn) [Example 176, 2-((7-cyano-2-(3′-(3-(((R)-3-hydroxypyrrolidin-1-yl)methyl)-1,7-naphthyridin-8-ylamino)-2,2′-dimethylbiphenyl-3-yl)benzo[d]oxazol-5-yl)methyl)-2-aza bicyclo[2.2.1]heptane-5-carboxylic acid]"
3,≤ 10,"Cc1c(Nc2nccc3cc(CN4CC[C@@H](C(=O)O)C4)cnc23)cccc1-c1cccc(-c2nc3cc(CN[C@@H](C)CO)cc(C#N)c3o2)c1C [Example 211, (R)-1-((8-(3′-(7-cyano-5-(((S)-1-hydroxypropan-2-ylamino)methyl)benzo[d]oxazol-2-yl)-2,2′-dimethylbiphenyl-3-ylamino)-1,7-naphthyridin-3-yl)methyl)pyrrolidine-3-carboxylic acid]"
4,≤ 10,"Cc1c(-c2nc3cc(CN4CC[C@@](C)(C(=O)O)C4)cc(C#N)c3o2)cccc1-c1cccc(NC(=O)c2nc3c(n2C)CC(C)N(C)C3)c1Cl (stereo partly drawn) [Example 161, (3R)-1-((2-(2′-chloro-2-methyl-3′-(1,5,6-trimethyl-4,5,6,7-tetrahydro-1H-imidazo[4,5-c]pyridine-2-carboxamido)biphenyl-3-yl)-7-cyanobenzo[d]oxazol-5-yl)methyl)-3-methylpyrrolidine-3-carboxylic acid]"
5,≤ 10,"Cc1c(COc2cc(OCc3cncc(C#N)c3)c(CN3CC[C@@H](O)C3)cc2Cl)cccc1-c1cccc(-c2nc3cc(CN4CC[C@@H](C(=O)O)C4)cc(Cl)c3o2)c1C [Example 148, (R)-1-((7-chloro-2-(3′-((2-chloro-5-((5-cyanopyridin-3-yl)methoxy)-4-(((R)-3-hydroxypyrrolidin-1-yl)methyl)phenoxy)methyl)-2,2′-dimethyl-[1,1′-biphenyl]-3-yl)benzo[d]oxazol-5-yl)methyl)pyrrolidine-3-carboxylic acid]"
6,≤ 10,"Cc1c(-c2nc3cc(CN4CC5(C(=O)O)CC4C5)cc(C#N)c3o2)cccc1-c1cccc(-c2nc3c(s2)CN(C(=O)CN(C)C)C3)c1C [Example 235, 2-((7-cyano-2-(3′-(5-(2-(dimethylamino)acetyl)-5,6-dihydro-4H-pyrrolo[3,4-d]thiazol-2-yl)-2,2′-dimethylbiphenyl-3-yl)benzo[d]oxazol-5-yl)methyl)-2-azabicyclo[2.1.1]hexane-4-carboxylic acid]"
7,≤ 10,"Cc1c(Nc2nccc3c(CN4CC[C@H](O)C4)ccnc23)cccc1-c1cccc(-c2nc3cc(CN4CC[C@H](C(=O)O)C4)cc(C#N)c3o2)c1C [Example 144, (S)-1-((7-cyano-2-(3′-((4-(((S)-3-hydroxypyrrolidin-1-yl)methyl)-1,7-naphthyridin-8-yl)amino)-2,2′-dimethyl-[1,1′-biphenyl]-3-yl)benzo[d]oxazol-5-yl)methyl)pyrrolidine-3-carboxylic acid]"
8,≤ 10,"CC[C@@H](CO)NCc1cnc2c(Nc3cccc(-c4cccc(-c5nc6cc(CN7CC[C@@](C)(C(=O)O)C7)cc(C#N)c6o5)c4C)c3C)nccc2c1 [Example 194, (R)-1-((7-cyano-2-(3′-(3-(((S)-1-hydroxybutan-2-ylamino)methyl)-1,7-naphthyridin-8-ylamino)-2,2′-dimethylbiphenyl-3-yl)benzo[d]oxazol-5-yl)methyl)-3-methylpyrrolidine-3-carboxylic acid]"
9,≤ 10,"Cc1c(Nc2nccc3cc(CN4CCCC4)cnc23)cccc1-c1cccc(-c2nc3cc(CN4CC[C@@H](C(=O)O)C4)cc(C#N)c3o2)c1C [Example 134, (R)-1-((7-cyano-2-(2,2′-dimethyl-3′-(3-(pyrrolidin-1-ylmethyl)-1,7-naphthyridin-8-ylamino)biphenyl-3-yl)benzo[d]oxazol-5-yl)methyl)pyrrolidine-3-carboxylic acid]"

# Further lines, the compound ahead of its results:
row,Structure (SMILES),IC50 [nM]
1,"CCN(C1CCN(c2cccc(-c3cccc(-c4nc5cc(CN6CC[C@@H](C(=O)O)C6)cc(C#N)c5o4)c3C)c2Cl)CC1)[C@H]1C[C@@H](O)C1 [Example 49, (R)-1-((2-(2′-chloro-3′-(4-(ethyl((1s,3s)-3-hydroxycyclobutyl)amino)piperidin-1-yl)-2-methylbiphenyl-3-yl)-7-cyanobenzo[d]oxazol-5-yl)methyl)pyrrolidine-3-carboxylic acid]",≤ 10
2,"Cc1c(Nc2ncnc3cccnc23)cccc1-c1cccc(-c2nc3cc(CN4CC[C@@H](C(=O)O)C4)cc(C#N)c3o2)c1C [Example 13, (R)-1-((7-cyano-2-(2,2′-dimethyl-3′-(pyrido[3,2-d]pyrimidin-4-ylamino)biphenyl-3-yl)benzo[d]oxazol-5-yl)methyl)pyrrolidine-3-carboxylic acid]",≤ 10
3,"Cc1c(-c2nc3cc(CN4CC[C@H](C(=O)O)C4)cc(C#N)c3o2)cccc1-c1cccc(NC(=O)c2nc3c(n2C)CCNC3)c1Cl [Example 92, (S)-1-((2-(2′-chloro-2-methyl-3′-(1-methyl-4,5,6,7-tetrahydro-1H-imidazo[4,5-c]pyridine-2-carboxamido)biphenyl-3-yl)-7-cyanobenzo[d]oxazol-5-yl)methyl)pyrrolidine-3-carboxylic acid]",≤ 10
4,"Cc1c(-c2nc3cc(CN4CC[C@@H](C(=O)O)C4)cc(C#N)c3o2)cccc1-c1cccc(N2CCC(N[C@H]3C[C@@H](O)C3)CC2)c1Cl [Example 47, (R)-1-((2-(2′-chloro-3′-(4-((1s,3s)-3-hydroxycyclobutylamino)piperidin-1-yl)-2-methylbiphenyl-3-yl)-7-cyanobenzo[d]oxazol-5-yl)methyl)pyrrolidine-3-carboxylic acid]",≤ 10
5,"Cc1c(-c2nc3cc(CN4CC[C@@H](C(=O)NCCO)C4)cc(C#N)c3o2)cccc1-c1cccc(-n2cc3c(n2)CN(C(C)C)CC3)c1Cl [Example 104, (R)-1-((2-(2′-chloro-3′-(6-isopropyl-4,5,6,7-tetrahydro-2H-pyrazolo[3,4-c]pyridin-2-yl)-2-methylbiphenyl-3-yl)-7-cyanobenzo[d]oxazol-5-yl)methyl)-N-(2-hydroxyethyl)pyrrolidine-3-carboxamide]",≤ 10
6,"Cc1c(-c2nc3c(o2)CN(C(=O)CN(C)C)C3)cccc1-c1cccc(-c2nc3cc(CN4CC(C(=O)O)C4)cc(C#N)c3o2)c1C [Example 123, 1-((7-cyano-2-(3′-(5-(dimethylglycyl)-5,6-dihydro-4H-pyrrolo[3,4-d]oxazol-2-yl)-2,2′-dimethyl-[1,1′-biphenyl]-3-yl)benzo[d]oxazol-5-yl)methyl)azetidine-3-carboxylic acid]",≤ 10
7,"Cc1c(-c2nc3cc(CN4CC[C@H](C(=O)O)C4)cc(C#N)c3o2)cccc1-c1cccc(NC(=O)c2nc3c(n2C)CCN(CCO)C3)c1Cl [Example 93, (S)-1-((2-(2′-chloro-3′-(5-(2-hydroxyethyl)-1-methyl-4,5,6,7-tetrahydro-1H-imidazo[4,5-c]pyridine-2-carboxamido)-2-methylbiphenyl-3-yl)-7-cyanobenzo[d]oxazol-5-yl)methyl)pyrrolidine-3-carboxylic acid]",≤ 10
8,"CNC1CCN(c2cccc(-c3cccc(-c4nc5cc(CN6CC[C@@H](C(=O)O)C6)cc(Cl)c5o4)c3C)c2Cl)CC1 [Example 43, (R)-1-((7-chloro-2-(2′-chloro-2-methyl-3′-(4-(methylamino)piperidin-1-yl)biphenyl-3-yl)benzo[d]oxazol-5-yl)methyl)pyrrolidine-3-carboxylic acid]",≤ 10
9,"Cc1c(-c2nc3c(o2)CN(C(=O)CN2CCC2)C3)cccc1-c1cccc(-c2nc3cc(CN4CC[C@@H](C(=O)O)C4)cc(C#N)c3o2)c1C [Example 130, (R)-1-((2-(3′-(5-(2-(azetidin-1-yl)acetyl)-5,6-dihydro-4H-pyrrolo[3,4-d]oxazol-2-yl)-2,2′-dimethyl-[1,1′-biphenyl]-3-yl)-7-cyanobenzo[d]oxazol-5-yl)methyl)pyrrolidine-3-carboxylic acid]",≤ 10
10,"Cc1c(-c2nc3cc(CN4CC[C@@H](C(=O)O)C4)cc(C#N)c3o2)cccc1-c1cccc(-c2nc3c(s2)C(C)(C)N(C)CC3)c1C [Example 79, (R)-1-((7-cyano-2-(2,2′-dimethyl-3′-(4,4,5-trimethyl-4,5,6,7-tetrahydrothiazolo[5,4-c]pyridin-2-yl)-[1,1′-biphenyl]-3-yl)benzo[d]oxazol-5-yl)methyl)pyrrolidine-3-carboxylic acid]",≤ 10
11,"Cc1c(-c2nc3c(o2)CN(C(=O)CN2CC[C@H](C(=O)O)C2)C3)cccc1-c1cccc(-c2nc3cc(CN4CC[C@@H](O)C4)cc(C#N)c3o2)c1C [Example 131, (S)-1-(2-(2-(3′-(7-cyano-5-(((R)-3-hydroxypyrrolidin-1-yl)methyl)benzo[d]oxazol-2-yl)-2,2′-dimethyl-[1,1′-biphenyl]-3-yl)-4,6-dihydro-5H-pyrrolo[3,4-d]oxazol-5-yl)-2-oxoethyl)pyrrolidine-3-carboxylic acid]",≤ 10
12,"Cc1c(-c2nc3cc(CN4CC[C@@H](C(=O)O)C4)cc(C#N)c3o2)cccc1-c1cccc(-c2nc3c(s2)CN(C(C)CO)CC3)c1C (stereo partly drawn) [Example 66, (3R)-1-((7-cyano-2-(3′-(5-(1-hydroxypropan-2-yl)-4,5,6,7-tetrahydrothiazolo[5,4-c]pyridin-2-yl)-2,2′-dimethyl-[1,1′-biphenyl]-3-yl)benzo[d]oxazol-5-yl)methyl)pyrrolidine-3-carboxylic acid]",≤ 10

# Reference: patent US10308644B2, “Heterocyclic compounds as immunomodulators” (Incyte Corporation, priority 2016, dated 2019)
